Data set [1] has as its system RET (RET/C634Y, RET/M918T, RET/C634W, RET/PTC1, RET/PTC3, KIF5B-RET, RET/C634R-V804M). Put plainly: RET auto-phosphorylation immunoblot, all cell lines and mutations tested. The class given is cell-based. How it is done: FIG. 1: Photographs of blots showing inhibition of phosphorylation of RET/C634Y and RET/M918T in intact cells by Pz-1 or vehicle (NT: not treated). Serum-starved NIH3T3 cells expressing RET/C634Y or RET/M918T mutants were treated for 2 hr with indicated concentrations of Pz-1. 50 μg of total cell lysates were subjected to immunoblotting with anti-phospho-Y1062 (αp1062) or anti-phospho-Y905 (αp905) RET antibodies. The blots were normalized using anti-RET (αRET) antibodies.
FIG. 2: Photographs of blots showing inhibition of phosphorylation of gate-keeper RET point mutant and rearranged RET oncoproteins by Pz-1 or vehicle (NT: not treated). HEK293 cells were transiently transfected with vectors expressing RET/C634R-V804M mutant (V804 is the gate-keeper RET residue), or RET/PTC1 (CCDC6-RET, found in papillary thyroid carcinoma and lung adenocarcinoma), RET/PTC3 (NCOA4-RET, found in papillary thyroid carcinoma and lung adenocarcinoma), or KIF5B-RET (found in lung adenocarcinoma). After 36 hr from transfection, cells were serum-starved for 12 hr and then treated for 2 hr with indicated concentrations of Pz-1. 50 μg of total cell lysates were subjected to immunoblotting with anti-phospho-Y1062 (αp1062) and anti-phospho-Y905 (αp905) RET antibodies. The blots were normalized using anti-RET (αRET) antibody.
FIG. 3: Photographs of blots showing inhibition of RET protein endogenously expressed in TT cells (human MTC cell line expressing RET/C634W) by indicated concentrations of Pz-1 or vehicle (NT: not treated) and reduced effects in thyroid non-transformed Nthy-ori-3-1 cells. […]
The inhibition of RET auto-phosphorylation by Pz-1 was measured in several different cell lines including NIH3T3 fibroblasts expressing RET/C634Y or RET/M918T, TT expressing RET/C634W (MTC), Nthy-ory-3-1 (thyroid, non-transformed with RET; negative control), HEK293/RET/PTC1 (CCDC6-RET that can be found in PTC & lung cancer), HEK293/RET-KIF5B (that can be found in lung cancer), HEK293/RET/PTC3 (NCOA4-RET, that can be found in PTC & lung cancer), and HEK293 transfected with RET/C634R-V804M (FIGS. 1-3). […]
Background: In western blotting, separated proteins are transferred to a membrane and probed.

A further data set in a line: PK study in mice. The class given is in vivo. Particulars: for half-life: mouse, in vivo. How it is done: For PK studies of Pz-1 in animals, a solution formulation for oral administration was created in 500 μL of polysorbate 80, 500 μL of EtOH, and 1.0 mL of pH 2 buffer. For the toxicity studies, a suspension formulation was developed in tween 20 (20%) and xanthan gum (0.125%).
T112 (3-4 hrs) in rats was in line with T1/2 in mice (4.2 hrs).

“Also recorded” adds a separate entry of the source. Like-named read-outs stand apart in the source and are kept apart here.

Consider `Cn1cc(-c2ccc3c(c2)ncn3-c2ccc(CC(=O)Nc3cc(C(C)(C)C)on3)cc2)cn1` [Pz-1, N-(5-(tert-butyl)isoxazol-3-yl)-2-(4-(5-(1-methyl-1H-pyrazol-4-yl)-1H-benzo[d]imidazol-1-yl)phenyl)acetamide], for which the “inhibition of pRET” value in data set [1] (1 nM, 2 hrs, all cell-lines) was “strong inhibition; also recorded: strongly inhibited”. For the same molecule, the “concentration at which potent on RET and all tested RET mutants including RET/V804M” value in data set [1] (FIGS. 1-3) is reported as “less than 1 nM”. Moreover, the “inhibition of RET auto-phosphorylation” value in data set [1] (nanomolar concentrations, all cell lines and mutations tested) is recorded as 90%. In the data set “PK study in mice” (2 mg/kg, solution formulation), this molecule yielded an AUC of 6.5 µg/h/mL. For the same molecule, the half-life in “PK study in mice” (oral, read-out: T1/2 (converted)) was 4.2 h; in “PK study in mice” (po, 2 mg/kg, read-out: elimination half-life (converted)), 3.8 h.

Source of the values: patent publication US9988371B2, “Benzimidazole analogues and related methods” (The Arizona Board of Regents, on Behalf of the University …, priority 2014, dated 2018).
